Data taken from patent publication US4891358A, “ANE derivatives with novel bridging” (Bio-Mega Inc., priority 1987, dated 1990).
Numbered stars: 1 amine (or outer) side, 2 acyl side, 3 side chain; on linkers, the order of the positions; unused ones are H or OH. Bridge positions count the residues as written; N and C are the ends. Square brackets hold non-standard residues; d marks the D form. Peptide text beside a SMILES is read from it. Pen = CC(C)(S)[C@H](N)C(=O)O; X1 = O=C(CCC[*:2])[*:1]

Test system: conscious normotensive rat
Assay: Diuretic assay in the conscious normotensive rat
Type: in vivo
Conditions: for URINE VOLUME: 0.5 μg/kg/min infusion via femoral vein, ratio of treated over control, volume in 10 minute sample (average of three consecutive samples); for ELECTROLYTE EXCRETION K^+ / ELECTROLYTE EXCRETION Na^+: 0.5 μg/kg/min infusion, treated minus controls, average of three samples
Description: More explicitly, normotensive male rats (300-325 g) were anesthetized with halothane. Following an application of lidocaine 2% solution, the femoral artery was cannulated for measurements of blood pressure and heart rate, and the femoral vein was cannulated for the administration of the test compounds. The bladder was also cannulated to measure urine flow. After surgery was completed, the animals were placed in restraining cages and allowed to recover from anesthesia for a period of one hour. A Ringer's solution infusion was started at a rate of 1.2 ml per hour. Three control urine samples were collected at 10 minute intervals. The test compound was then infused at a rate varying from 0.5 to 3 μg/kg/min over 30 minutes. Three test samples of urine were collected at 10 minute intervals during the compound infusion. After the test compound had been infused for 30 minutes and 3 more urine samples were collected. The volume of each urine sample was determined and the electrolyte concentration was measured using a biomedical electrolyte analyser. The animals served as their own controls. The systolic and diastolic blood pressures and the heart rate were determined during each urine collection period.

Row | Compound | URINE VOLUME | ELECTROLYTE EXCRETION K^+ | ELECTROLYTE EXCRETION Na^+
1 | CC[C@H](C)[C@@H]1NC(=O)[C@H](CCCNC(=N)N)NC(=O)[C@H](CC(=O)O)NC(=O)[C@H]([C@@H](C)CC)NC(=O)[C@H](CCCNC(=N)N)NC(=O)CNC(=O)CNC(=O)[C@H](Cc2ccccc2)NC(=O)CCCSC(C)(C)[C@@H](C(=O)N[C@@H](CC(N)=O)C(=O)N[C@@H](CO)C(=O)N[C@@H](Cc2ccccc2)C(=O)N[C@@H](CCCNC(=N)N)C(=O)N[C@@H](Cc2ccc(O)cc2)C(=O)O)NC(=O)CNC(=O)[C@H](CC(C)C)NC(=O)CNC(=O)[C@H](CO)NC(=O)[C@H](CCC(N)=O)NC(=O)[C@H](C)NC(=O)CNC1=O [rat[(CH2 CH2 CH2 CO)^105, Pen^121]-ANF(105-126)] (FGGRIDRIGAQSGLG[Pen]NSFRY-OH; linker N-16 via X1) | 3.0 | 24.8 | 17.9
2 | rat [(CH2 -CH2 CH2 CO)^105]ANF-(105-126) [rat[(CH2 CH2 CH2 CO)^105]-ANF(105-126)] | 2.8 | 10.2 | 34.0
